Reference: patent publication US20260007758A1, “SO[…]-2 RECEPTOR (SST2R) NON-PEPTIDE DRUG CONJUGATES AND USES THEREOF” (Crinetics Pharmaceuticals, Inc., priority 2024, published 2026)

Experiments:
Format in all cases: cell-based
[1] = test system: NCI-H524 human small cell lung cancer cells; assay: H524 assay: inhibition of cell proliferation (CellTiter Glo); conditions: 2 h treatment, washout, additional 70 h incubation
Outline: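 NCI-H524 cells were exposed for 2 h to NDC in an 11-point two-fold series starting at 1 uM. The drug was then washed out and cells grew a further 70 h. CellTiter Glo luminescence gave % inhibition versus untreated control, and IC50 came from a four-parameter nonlinear regression.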

[2] = biological target: T1, SST2 (Homo sapiens, UniProt P30874); assay: PathHunter CHO-K1 SST2 Internalization Assay; conditions: PathHunter CHO-K1 SST2 cells; 90 min at 37 C; luminescence; read-out: Internalization EC50
T1 construct: host or cells: PathHunter CHO-K1 SST2 cells
Outline: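 CHO-K1 cells expressing human SST2, 2500 cells/well, grown 48 h, then exposed 90 min at 37 C to 11-point 1:3 NDC dilutions (final top 10 uM). Beta-Glo luminescence after 60 min at room temperature; four-parameter IC50, duplicate mean, background-corrected.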

[3] = biological target: T2, human somatostatin receptor subtype 2 (Homo sapiens, UniProt P30874); assay: Functional assay for SSTR2 agonists (HTRF cAMP); conditions: CHO-K1 cells stably expressing human SST2; NKH477-stimulated cAMP; 20 min at 37 C; read-out: hSST2 cAMP Avg EC50
T2 construct: expressed in transfected cells
Outline: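 CHO-K1 cells stably expressing human SSTR2 treated with compound (typically 0-10,000 nM final) for 20 min at 37 °C. Lysate cAMP measured by HTRF (665/620 nm ratio), converted via standard curve; EC50 from cAMP vs concentration.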

T1 sequence (P30874 whole entry): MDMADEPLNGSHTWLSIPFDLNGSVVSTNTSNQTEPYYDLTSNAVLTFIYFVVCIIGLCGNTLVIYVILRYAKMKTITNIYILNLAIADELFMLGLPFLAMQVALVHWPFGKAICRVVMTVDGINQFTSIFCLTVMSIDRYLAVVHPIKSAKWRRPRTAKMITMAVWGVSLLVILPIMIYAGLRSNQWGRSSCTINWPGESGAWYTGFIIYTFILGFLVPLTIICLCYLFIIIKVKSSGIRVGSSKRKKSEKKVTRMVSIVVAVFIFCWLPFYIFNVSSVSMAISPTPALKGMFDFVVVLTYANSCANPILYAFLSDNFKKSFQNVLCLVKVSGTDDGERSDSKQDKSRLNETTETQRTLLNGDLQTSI
T2 sequence (P30874 whole entry): as above

SMILES | EC50 [1] [nM] | EC50 [2] [nM] | EC50 [3] [nM]
CC[C@H](C)[C@@H]([C@@H](CC(=O)N1CCC[C@H]1[C@H](OC)[C@@H](C)C(=O)N[C@H](C)[C@@H](O)c1ccccc1)OC)N(C)C(=O)[C@@H](NC(=O)[C@H](C(C)C)N(C)C(=O)OCc1ccc(NC(=O)[C@H](CCCNC(N)=O)NC(=O)[C@@H](NC(=O)c2cn(CCOCCC(=O)NCCNc3ncc(-c4cc(C)cc(F)c4)c(N4CCC(N)CC4)c3-c3nc4cc(Cl)ccc4[nH]3)nn2)C(C)C)c(O[C@@H]2O[C@H](C(=O)N3CCNCC3)[C@@H](O)[C@H](O)[C@H]2O)c1)C(C)C [Compound 237] | 8.2 | 8.4 | 0.15
CC[C@H](C)[C@@H]([C@@H](CC(=O)N1CCC[C@H]1[C@H](OC)[C@@H](C)C(=O)N[C@H](C)[C@@H](O)c1ccccc1)OC)N(C)C(=O)[C@@H](NC(=O)[C@H](C(C)C)N(C)C(=O)OCc1ccc(NC(=O)[C@H](CCCNC(N)=O)NC(=O)[C@@H](NC(=O)C[C@@H](N)C(=O)NCCOCCOCCOCCOCCC(=O)NCCNc2ncc(-c3cc(C)cc(F)c3)c(N3CCC(NC)CC3)c2-c2nc3ccc(Cl)cc3[nH]2)C(C)C)c(O[C@@H]2O[C@H](C(=O)O)[C@@H](O)[C@H](O)[C@H]2O)c1)C(C)C [Compound 122] | 27 | 8.8 | 0.19
CC[C@H](C)[C@@H]([C@@H](CC(=O)N1CCC[C@H]1[C@H](OC)[C@@H](C)C(=O)N[C@H](C)[C@@H](O)c1ccccc1)OC)N(C)C(=O)[C@@H](NC(=O)[C@H](C(C)C)N(C)C(=O)OCc1ccc(NC(=O)[C@H](CCCNC(N)=O)NC(=O)[C@@H](NC(=O)CCOCCOCCOCCOCCNc2ncc(C(=O)NCCNc3ncc(-c4cc(C)cc(F)c4)c(N4CCC(N)CC4)c3-c3nc4ccc(Cl)cc4[nH]3)cn2)C(C)C)cc1)C(C)C [Compound 180] | 680 | 16 | 0.52
CC[C@H](C)[C@@H]([C@@H](CC(=O)N1CCC[C@H]1[C@H](OC)[C@@H](C)C(=O)N[C@H](C)[C@@H](O)c1ccccc1)OC)N(C)C(=O)[C@@H](NC(=O)[C@H](C(C)C)N(C)C(=O)OCc1ccc(NC(=O)[C@H](CCCNC(N)=O)NC(=O)[C@@H](NC(=O)c2cc(NCCCCCC(=O)NCCNc3ncc(-c4cc(C)cc(F)c4)c(N4CCC(N)CC4)c3-c3nc4ccc(F)cc4[nH]3)cc(C(=O)NCC(=O)O)c2)C(C)C)cc1)C(C)C [Compound 167] | 150 | 13 | 0.24
CC[C@H](C)[C@@H]([C@@H](CC(=O)N1CCC[C@H]1[C@H](OC)[C@@H](C)C(=O)N[C@H](C)[C@@H](O)c1ccccc1)OC)N(C)C(=O)[C@@H](NC(=O)[C@H](C(C)C)N(C)C(=O)OCc1ccc(NC(=O)[C@H](CCCNC(N)=O)NC(=O)[C@@H](NC(=O)c2cc(OCCOCCOCCOCCOCCC(=O)NCCNc3ncc(-c4cc(C)cc(F)c4)c(N4CCC(N)CC4)c3-c3nc4ccc(Cl)cc4[nH]3)cc(C(=O)NCC(=O)O)c2)C(C)C)cc1)C(C)C [Compound 161] | 63 | 9.1 | 0.32
CC[C@H](C)[C@@H]([C@@H](CC(=O)N1CCC[C@H]1[C@H](OC)[C@@H](C)C(=O)N[C@H](C)[C@@H](O)c1ccccc1)OC)N(C)C(=O)[C@@H](NC(=O)[C@H](C(C)C)N(C)C(=O)OCc1ccc(NC(=O)[C@H](CCCNC(N)=O)NC(=O)[C@@H](NC(=O)CCOCCC(=O)NCCNc2ncc(-c3cc(C)cc(F)c3)c(N3CCC(N)CC3)c2-c2nc3ccc(Cl)cc3[nH]2)C(C)C)c(O[C@@H]2O[C@H](C(=O)N[C@@H](CCCCNC(=O)CCCCc3ccc(I)cc3)C(=O)O)[C@@H](O)[C@H](O)[C@H]2O)c1)C(C)C [Compound 54] | 20 | 2.1 | 0.26
CC[C@H](C)[C@@H]([C@@H](CC(=O)N1CCC[C@H]1[C@H](OC)[C@@H](C)C(=O)N[C@H](C)[C@@H](O)c1ccccc1)OC)N(C)C(=O)[C@@H](NC(=O)[C@H](C(C)C)N(C)C(=O)OCc1ccc(NC(=O)[C@H](CCCNC(N)=O)NC(=O)[C@@H](NC(=O)[C@@H](CS(=O)(=O)O)NC(=O)CCOCCC(=O)NCCNc2ncc(-c3cc(C)cc(F)c3)c(N3CCC(N)CC3)c2-c2nc3ccc(Cl)cc3[nH]2)C(C)C)cc1C(=O)N1CC(N)C1)C(C)C [Compound 76] | 12 | 4.7 | 0.075
CC[C@H](C)[C@@H]([C@@H](CC(=O)N1CCC[C@H]1[C@H](OC)[C@@H](C)C(=O)N[C@H](C)[C@@H](O)c1ccccc1)OC)N(C)C(=O)[C@@H](NC(=O)[C@H](C(C)C)N(C)C(=O)OCc1ccc(NC(=O)[C@H](CCCNC(N)=O)NC(=O)[C@@H](NC(=O)C2(C(=O)NCCOCCC(=O)NCCNc3ncc(-c4cc(C)cc(F)c4)c(N4CCC(N)CC4)c3-c3nc4ccc(Cl)cc4[nH]3)CCC2)C(C)C)cc1C(=O)NCCN)C(C)C [Compound 81] | 2 | 10 | 0.094
CC[C@H](C)[C@@H]([C@@H](CC(=O)N1CCC[C@H]1[C@H](OC)[C@@H](C)C(=O)N[C@H](C)[C@@H](O)c1ccccc1)OC)N(C)C(=O)[C@@H](NC(=O)C(C(C)C)N(C)C(=O)OCc1ccc(NC(=O)[C@H](CCCNC(N)=O)NC(=O)[C@@H](NC(=O)CCOCCC(=O)NCCNc2ncc(-c3cc(C)cc(F)c3)c(N3CCC(N)CC3)c2-c2nc3ccc(Cl)cc3[nH]2)C(C)C)c(O[C@@H]2O[C@H](C(=O)N3CCN(CC(=O)O)CC3)[C@@H](O)[C@H](O)[C@H]2O)c1)C(C)C (stereo partly drawn) [Compound 227] | 11 | 3.1 | 0.078
CC[C@H](C)[C@@H]([C@@H](CC(=O)N1CCC[C@H]1[C@H](OC)[C@@H](C)C(=O)N[C@H](C)[C@@H](O)c1ccccc1)OC)N(C)C(=O)[C@@H](NC(=O)[C@H](C(C)C)N(C)C(=O)OCc1ccc(NC(=O)[C@H](CCCNC(N)=O)NC(=O)[C@@H](NC(=O)c2cc(NC(=O)CCCC(=O)NCCNc3ncc(-c4cc(C)cc(F)c4)c(N4CCC(N)CC4)c3-c3nc4ccc(Cl)cc4[nH]3)cc(C(=O)NC[C@@H](N)C(=O)O)c2)C(C)C)cc1)C(C)C [Compound 170] | 22 | 12 | 0.31
CC[C@H](C)[C@@H]([C@@H](CC(=O)N1CCC[C@H]1[C@H](OC)[C@@H](C)C(=O)N[C@H](C)[C@@H](O)c1ccccc1)OC)N(C)C(=O)[C@@H](NC(=O)[C@H](C(C)C)N(C)C(=O)OCc1ccc(NC(=O)[C@H](CCCNC(N)=O)NC(=O)[C@@H](NC(=O)c2cc(NC(=O)CCOCCC(=O)NCCNc3ncc(-c4cc(C)cc(F)c4)c(N4CCC(N)CC4)c3-c3nc4ccc(Cl)cc4[nH]3)cc(C(=O)NCC(=O)O)c2)C(C)C)cc1)C(C)C [Compound 149] | 100 | 12 | 0.033
CC[C@H](C)[C@@H]([C@@H](CC(=O)N1CCC[C@H]1[C@H](OC)[C@@H](C)C(=O)N[C@H](C)[C@@H](O)c1ccccc1)OC)N(C)C(=O)[C@@H](NC(=O)[C@H](C(C)C)N(C)C(=O)OCc1ccc(NC(=O)[C@H](CCCNC(N)=O)NC(=O)[C@@H](NC(=O)CCOCCC(=O)NCCNc2ncc(-c3cc(C)cc(F)c3)c(N3CCC(N)CC3)c2-c2nc3ccc(Cl)cc3[nH]2)C(C)C)c(C)c1)C(C)C [Compound 9] | 4.3 | 2.5 | 0.38
